Assay results taken from PubChem BioAssay AID1963832 (Molecular Pharmacology Branch, DTP, NCI, 2024).

System: 885724-159-R-J1-PDC complex spheroid viability
Experiment: Anticancer human tumor 885724-159-R-J1-PDC patient-derived pancreatic adenocarcinoma cell line growth inhibition [POLQ]
Conditions: for IC50: curve of first compound; for viability, T/C: stronger effect = lower value
In short: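 PDC + HUVEC + MSC complex spheroids; POLQ inhibitors ± partner drugs; top conc. at/near clinical Cmax, else 10 microM (SN-38 1 microM), half-log dilutions; 37 degrees C, 5% CO2.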

[1] = second compound 0.0316 µM, first compound 0.0316 µM
[2] = second compound 0.0316 µM, first compound 0.1 µM
[3] = second compound 0.1 µM, first compound 0.0316 µM
[4] = second compound 0.1 µM, first compound 0.1 µM
[5] = second compound 0.316 µM, first compound 0.0316 µM
[6] = second compound 0.316 µM, first compound 0.1 µM
[7] = second compound 1 µM, first compound 0.0316 µM
[8] = second compound 1 µM, first compound 0.1 µM
[9] = second compound 3.16 µM, first compound 0.0316 µM
[10] = second compound 3.16 µM, first compound 0.1 µM
[11] = second compound 10 µM, first compound 0.0316 µM
[12] = second compound 10 µM, first compound 0.1 µM
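Also: spheroids exposed to compounds for 7 days.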

SMILES: O=C(Nc1ccc(O)c(NS(=O)(=O)c2ccc(F)cc2)c1)c1ccc(-c2ccccc2)cc1 + Cc1cccc(N(C)C(=O)C2C(O)CCN2c2nc(C)cc(C(F)(F)F)c2C#N)c1
- IC50 (second compound 0.0316 µM): > 10 µM
- IC50 (second compound 0.1 µM): > 10 µM
- IC50 (second compound 0.316 µM): > 10 µM
- IC50 (second compound 1 µM): > 10 µM
- IC50 (second compound 3.16 µM): > 10 µM
- IC50 (second compound 10 µM): > 10 µM
- viability, T/C [1]: 110%
- viability, T/C [2]: 92.4%
- viability, T/C (second compound 0.0316 µM, first compound 0.316 µM): 101%
- viability, T/C (second compound 0.0316 µM, first compound 1 µM): 102%
- viability, T/C (second compound 0.0316 µM, first compound 3.16 µM): 106%
- viability, T/C (second compound 0.0316 µM, first compound 10 µM): 102%
- viability, T/C [3]: 96.6%
- viability, T/C [4]: 103%
- viability, T/C (second compound 0.1 µM, first compound 0.316 µM): 94.2%
- viability, T/C (second compound 0.1 µM, first compound 1 µM): 107%
- viability, T/C (second compound 0.1 µM, first compound 3.16 µM): 111%
- viability, T/C (second compound 0.1 µM, first compound 10 µM): 117%
- viability, T/C [5]: 102%
- viability, T/C [6]: 92.3%
- viability, T/C (second compound 0.316 µM, first compound 0.316 µM): 98.3%
- viability, T/C (second compound 0.316 µM, first compound 1 µM): 101%
- viability, T/C (second compound 0.316 µM, first compound 3.16 µM): 118%
- viability, T/C (second compound 0.316 µM, first compound 10 µM): 108%
- viability, T/C [7]: 110%
- viability, T/C [8]: 91.2%
- viability, T/C (second compound 1 µM, first compound 0.316 µM): 107%
- viability, T/C (second compound 1 µM, first compound 1 µM): 106%
- viability, T/C (second compound 1 µM, first compound 3.16 µM): 112%
- viability, T/C (second compound 1 µM, first compound 10 µM): 111%
- viability, T/C [9]: 107%
- viability, T/C [10]: 90.1%
- viability, T/C (second compound 3.16 µM, first compound 0.316 µM): 105%
- viability, T/C (second compound 3.16 µM, first compound 1 µM): 104%
- viability, T/C (second compound 3.16 µM, first compound 3.16 µM): 115%
- viability, T/C (second compound 3.16 µM, first compound 10 µM): 107%
- viability, T/C [11]: 105%
- viability, T/C [12]: 102%
- viability, T/C (second compound 10 µM, first compound 0.316 µM): 104%
- viability, T/C (second compound 10 µM, first compound 1 µM): 108%
- viability, T/C (second compound 10 µM, first compound 3.16 µM): 123%
- viability, T/C (second compound 10 µM, first compound 10 µM): 101%

SMILES: CC[C@@]1(O)C(=O)OCc2c1cc1n(c2=O)Cc2cc3c(CN(C)C)c(O)ccc3nc2-1 + Nc1ccc(C#CCN(C(=O)Cc2ncc(C(F)(F)F)cc2C(F)(F)F)c2ccc(F)cc2)nn1
- IC50 (second compound 0.0316 µM): > 0.1 µM
- IC50 (second compound 0.1 µM): > 0.1 µM
- IC50 (second compound 0.316 µM): > 0.1 µM
- IC50 (second compound 1 µM): > 0.1 µM
- IC50 (second compound 3.16 µM): > 0.1 µM
- IC50 (second compound 10 µM): > 0.1 µM
- viability, T/C (second compound 0.0316 µM, first compound 0.000316 µM): 91.3%
- viability, T/C (second compound 0.0316 µM, first compound 0.001 µM): 89.7%
- viability, T/C (second compound 0.0316 µM, first compound 0.00316 µM): 94.6%
- viability, T/C (second compound 0.0316 µM, first compound 0.01 µM): 83.6%
- viability, T/C [1]: 77.8%
- viability, T/C [2]: 63.3%
- viability, T/C (second compound 0.1 µM, first compound 0.000316 µM): 108%
- viability, T/C (second compound 0.1 µM, first compound 0.001 µM): 93%
- viability, T/C (second compound 0.1 µM, first compound 0.00316 µM): 89.4%
- viability, T/C (second compound 0.1 µM, first compound 0.01 µM): 82%
- viability, T/C [3]: 72.2%
- viability, T/C [4]: 63%
- viability, T/C (second compound 0.316 µM, first compound 0.000316 µM): 96.7%
- viability, T/C (second compound 0.316 µM, first compound 0.001 µM): 101%
- viability, T/C (second compound 0.316 µM, first compound 0.00316 µM): 93%
- viability, T/C (second compound 0.316 µM, first compound 0.01 µM): 94.2%
- viability, T/C [5]: 77%
- viability, T/C [6]: 58.9%
- viability, T/C (second compound 1 µM, first compound 0.000316 µM): 100%
- viability, T/C (second compound 1 µM, first compound 0.001 µM): 91.7%
- viability, T/C (second compound 1 µM, first compound 0.00316 µM): 85.2%
- viability, T/C (second compound 1 µM, first compound 0.01 µM): 85.3%
- viability, T/C [7]: 84.3%
- viability, T/C [8]: 54.7%
- viability, T/C (second compound 3.16 µM, first compound 0.000316 µM): 98%
- viability, T/C (second compound 3.16 µM, first compound 0.001 µM): 102%
- viability, T/C (second compound 3.16 µM, first compound 0.00316 µM): 98.5%
- viability, T/C (second compound 3.16 µM, first compound 0.01 µM): 83.2%
- viability, T/C [9]: 85.1%
- viability, T/C [10]: 59%
- viability, T/C (second compound 10 µM, first compound 0.000316 µM): 98.5%
- viability, T/C (second compound 10 µM, first compound 0.001 µM): 87.2%
- viability, T/C (second compound 10 µM, first compound 0.00316 µM): 98.8%
- viability, T/C (second compound 10 µM, first compound 0.01 µM): 98.8%
- viability, T/C [11]: 81.1%
- viability, T/C [12]: 63%
